Values of other authors as cited in paper PMC7855644 (Journal of pharmaceutical sciences, 2020).
Where no end group is shown, it is not given here.

Test system: blood brain barrier

TFFYGGSRGRRNNFRTEEY-NH2 [Peptide A7]
In vivo transcytosis: lack of in vivo transcytosis
